Results as given in patent US20040106578A1, “Fungicidal compositions based on pyridylmethylbenzamide derivatives and at least one complex III inhibiting compound” (priority 2001, published 2004).

System: Plasmopara viticola
Assay: Test of a composition against vine downy mildew, preventive action, on grapevine plants
Format: in vivo
Details: grapevine var. Chardonnay sprayed 3 days before inoculation, evaluated 7 days after contamination, Abbott formula, untreated control 90% sporulated surface
Description: Test of a Composition Against Vine Downy Mildew (Plasmopara Viticola; Preventive Action)
Grapevine plants are grown (var. Chardonnay) on sandy soil in plastic pots, with one plant per pot. The plants which are two months old (6 to 7 developed leaves) are sprayed with compound (I) and compound (II), either alone, or as a mixture.
The fungicidal active ingredients, either alone, or as a mixture, are applied at a dose equivalent to 500 litres/ha.
The compound (I)/compound (II) ratio studied is 1/2.
Three days after the treatment, each plant is inoculated by spraying an aqueous suspension of Plasmopara viticola sporangia obtained from contaminated leaves. The sporangium concentration is about 100 000 units per ml.
After contamination, the plants are incubated for two days at 18° C. under a saturated atmosphere, and then for 5 days at about 20° C. with a relative humidity of 90-100%.
Seven days after the contamination, the symptoms are evaluated in terms of underside surface of the leaves which are infected, compared with the untreated but contaminated plants.
The efficacy of the treatment is calculated using the following Abbott formula: [formula]
The concentrations of the fungicides, alone or as a mixture, giving 50%, 70% or 90% efficacy for each component, in the appropriate test, are determined based on the dose/response sigmoid curve model and their corresponding confidence intervals. […]

Structure (SMILES) | Efficacy (%) (5 mg/l) | Efficacy (%) (10 mg/l)
O=C(NCc1ncc(C(F)(F)F)cc1Cl)c1c(Cl)cccc1Cl [Compound (Ia), 2,6-dichloro-N-{[3-chloro-5-(trifluoromethyl)-2-pyridinyl]methyl}benzamide] | 40 | –
CSC1=N[C@@](C)(c2ccccc2)C(=O)N1Nc1ccccc1 [Fenamidone, (S)-1-anilino-4-methyl-2-methylthio-4-phenylimidazolin-5-one] | – | 72
